# According to PubChem BioAssay (NCI):
#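 All cell lines were grown in 96-well plates and treated with compound for 48 hours. The concentration for 50% growth inhibition is given as GI50. Definition used: TGI = concentration required for complete inhibition of growth.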
# What was measured:
# Assay in all cases: growth of human tumour cells (NCI), 48 h
# HOP-92 NSCLC = test system: HOP-92 NSCLC
# TK-10 renal = test system: TK-10 renal
# RPMI-8226 leukemia = test system: RPMI-8226 leukemia
# 786-0 renal = test system: 786-0 renal
# BT-549 breast = test system: BT-549 breast
# MOLT-4 leukemia = test system: MOLT-4 leukemia
# UACC-257 melanoma = test system: UACC-257 melanoma
# SNB-19 CNS = test system: SNB-19 CNS
# HCT-116 colon = test system: HCT-116 colon
# M14 melanoma = test system: M14 melanoma
# MCF7 breast = test system: MCF7 breast
# SF-268 CNS = test system: SF-268 CNS
# NCI-H23 lung = test system: NCI-H23 lung
# K-562 leukemia = test system: K-562 leukemia
# SR leukemia = test system: SR leukemia
# CCRF-CEM leukemia = test system: CCRF-CEM leukemia
# EKVX NSCLC = test system: EKVX NSCLC
# OVCAR-8 ovarian = test system: OVCAR-8 ovarian
# NCI-H522 lung = test system: NCI-H522 lung
# HT29 colon = test system: HT29 colon
# SW-620 colon = test system: SW-620 colon
# NCI-H226 lung = test system: NCI-H226 lung
# IGROV1 ovarian = test system: IGROV1 ovarian
# MDA-MB-231 breast = test system: MDA-MB-231 breast
# SNB-75 CNS = test system: SNB-75 CNS
# HOP-62 NSCLC = test system: HOP-62 NSCLC
# SK-OV-3 ovarian = test system: SK-OV-3 ovarian
# HS 578T breast = test system: HS 578T breast
# COLO 205 colon = test system: COLO 205 colon
# SF-539 CNS = test system: SF-539 CNS
# OVCAR-4 ovarian = test system: OVCAR-4 ovarian
# OVCAR-5 ovarian = test system: OVCAR-5 ovarian
# A549 NSCLC = test system: A549 NSCLC
# UO-31 renal = test system: UO-31 renal
# SN12C renal = test system: SN12C renal
# UACC-62 melanoma = test system: UACC-62 melanoma
# A498 renal = test system: A498 renal
# KM12 colon = test system: KM12 colon
# MDA-MB-435 = test system: MDA-MB-435
# NCI/ADR-RES ovarian = test system: NCI/ADR-RES ovarian
# U251 CNS = test system: U251 CNS
# SK-MEL-2 melanoma = test system: SK-MEL-2 melanoma
# SK-MEL-5 melanoma = test system: SK-MEL-5 melanoma
# SF-295 CNS = test system: SF-295 CNS
# LOX IMVI melanoma = test system: LOX IMVI melanoma
# HL-60(TB) leukemia = test system: HL-60(TB) leukemia
# NCI-H460 lung = test system: NCI-H460 lung
# PC-3 prostate = test system: PC-3 prostate
# DU-145 prostate = test system: DU-145 prostate
# HCC-2998 colon = test system: HCC-2998 colon
# ACHN renal = test system: ACHN renal
# HCT-15 colon = test system: HCT-15 colon
# OVCAR-3 ovarian = test system: OVCAR-3 ovarian
# SK-MEL-28 melanoma = test system: SK-MEL-28 melanoma
# MALME-3M melanoma = test system: MALME-3M melanoma
# RXF 393 renal = test system: RXF 393 renal
# CAKI-1 renal = test system: CAKI-1 renal
smiles,measurement,setting,value
COC(=O)[C@@H](C)C[C@H](Cc1ccccc1)NC(=O)c1csc(CC[C@H](C(C)C)N(C)C(=O)[C@@H](NC(=O)[C@H]2CCCCN2C)C(C)C)n1,GI50,HOP-92 NSCLC,582 nM
same,TGI,HOP-92 NSCLC,> 26.9 µM
same,GI50,TK-10 renal,> 15.2 µM
same,TGI,TK-10 renal,> 33.3 µM
same,GI50,RPMI-8226 leukemia,135 nM
same,TGI,RPMI-8226 leukemia,> 33.3 µM
same,GI50,786-0 renal,382 nM
same,TGI,786-0 renal,> 30.2 µM
same,GI50,BT-549 breast,179 nM
same,TGI,BT-549 breast,3.81 µM
same,GI50,MOLT-4 leukemia,440 nM
same,TGI,MOLT-4 leukemia,> 33.3 µM
same,GI50,UACC-257 melanoma,> 33.3 µM
same,TGI,UACC-257 melanoma,> 33.3 µM
same,GI50,SNB-19 CNS,168 nM
same,TGI,SNB-19 CNS,> 33.3 µM
same,GI50,HCT-116 colon,235 nM
same,TGI,HCT-116 colon,> 14.8 µM
same,GI50,M14 melanoma,262 nM
same,TGI,M14 melanoma,1.52 µM
same,GI50,MCF7 breast,78 nM
same,TGI,MCF7 breast,> 33.3 µM
same,GI50,SF-268 CNS,722 nM
same,TGI,SF-268 CNS,> 33.3 µM
same,GI50,NCI-H23 lung,882 nM
same,TGI,NCI-H23 lung,> 33.3 µM
same,GI50,K-562 leukemia,131 nM
same,TGI,K-562 leukemia,> 33.3 µM
same,GI50,SR leukemia,68.6 nM
same,TGI,SR leukemia,> 33.3 µM
same,GI50,CCRF-CEM leukemia,295 nM
same,TGI,CCRF-CEM leukemia,> 33.3 µM
same,GI50,EKVX NSCLC,1330 nM
same,TGI,EKVX NSCLC,> 33.3 µM
same,GI50,OVCAR-8 ovarian,465 nM
same,TGI,OVCAR-8 ovarian,> 33.3 µM
same,GI50,NCI-H522 lung,65.6 nM
same,TGI,NCI-H522 lung,301 nM
same,GI50,HT29 colon,211 nM
same,TGI,HT29 colon,6.01 µM
same,GI50,SW-620 colon,164 nM
same,TGI,SW-620 colon,> 33.3 µM
same,GI50,NCI-H226 lung,856 nM
same,TGI,NCI-H226 lung,> 23.9 µM
same,GI50,IGROV1 ovarian,291 nM
same,TGI,IGROV1 ovarian,> 33.3 µM
same,GI50,MDA-MB-231 breast,318 nM
same,TGI,MDA-MB-231 breast,> 8800 nM
same,GI50,SNB-75 CNS,222 nM
same,TGI,SNB-75 CNS,9.2 µM
same,GI50,HOP-62 NSCLC,536 nM
same,TGI,HOP-62 NSCLC,> 33.3 µM
same,GI50,SK-OV-3 ovarian,451 nM
same,TGI,SK-OV-3 ovarian,> 33.3 µM
same,GI50,HS 578T breast,761 nM
same,TGI,HS 578T breast,15.8 µM
same,GI50,COLO 205 colon,190 nM
same,TGI,COLO 205 colon,1530 nM
same,GI50,SF-539 CNS,444 nM
same,TGI,SF-539 CNS,1.91 µM
same,GI50,OVCAR-4 ovarian,991 nM
same,TGI,OVCAR-4 ovarian,> 33.3 µM
same,GI50,OVCAR-5 ovarian,1260 nM
same,TGI,OVCAR-5 ovarian,> 33.3 µM
same,GI50,A549 NSCLC,1270 nM
same,TGI,A549 NSCLC,> 33.3 µM
same,GI50,UO-31 renal,1660 nM
same,TGI,UO-31 renal,> 33.3 µM
same,GI50,SN12C renal,435 nM
same,TGI,SN12C renal,> 33.3 µM
same,GI50,UACC-62 melanoma,140 nM
same,TGI,UACC-62 melanoma,> 33.3 µM
same,GI50,A498 renal,190 nM
same,TGI,A498 renal,1.56 µM
same,GI50,KM12 colon,324 nM
same,TGI,KM12 colon,> 33.3 µM
same,GI50,MDA-MB-435,40.7 nM
same,TGI,MDA-MB-435,0.17 µM
same,GI50,NCI/ADR-RES ovarian,3.46 µM
same,TGI,NCI/ADR-RES ovarian,> 33.3 µM
same,GI50,U251 CNS,398 nM
same,TGI,U251 CNS,> 33.3 µM
same,GI50,SK-MEL-2 melanoma,149 nM
same,TGI,SK-MEL-2 melanoma,> 33.3 µM
same,GI50,SK-MEL-5 melanoma,98.1 nM
same,TGI,SK-MEL-5 melanoma,747 nM
same,GI50,SF-295 CNS,334 nM
same,TGI,SF-295 CNS,> 33.3 µM
same,GI50,LOX IMVI melanoma,373 nM
same,TGI,LOX IMVI melanoma,> 33.3 µM
same,GI50,HL-60(TB) leukemia,79.9 nM
same,TGI,HL-60(TB) leukemia,0.298 µM
same,GI50,NCI-H460 lung,381 nM
same,TGI,NCI-H460 lung,> 14.5 µM
same,GI50,PC-3 prostate,383 nM
same,TGI,PC-3 prostate,> 33.3 µM
same,GI50,DU-145 prostate,303 nM
same,TGI,DU-145 prostate,> 19.7 µM
same,GI50,HCC-2998 colon,562 nM
same,TGI,HCC-2998 colon,> 33.3 µM
same,GI50,ACHN renal,324 nM
same,TGI,ACHN renal,> 33.3 µM
same,GI50,HCT-15 colon,604 nM
same,TGI,HCT-15 colon,> 33.3 µM
same,GI50,OVCAR-3 ovarian,108 nM
same,GI50,SK-MEL-28 melanoma,1450 nM
same,TGI,SK-MEL-28 melanoma,> 33.3 µM
Fc1ccc2[nH]cc(-c3nonc3-c3c[nH]c4ccc(Br)cc34)c2c1,GI50,HOP-92 NSCLC,1970 nM
same,TGI,HOP-92 NSCLC,5.52 µM
same,GI50,TK-10 renal,3.04 µM
same,TGI,TK-10 renal,6.63 µM
same,GI50,RPMI-8226 leukemia,2490 nM
same,TGI,RPMI-8226 leukemia,9.91 µM
same,GI50,786-0 renal,2160 nM
same,TGI,786-0 renal,4.5 µM
same,GI50,BT-549 breast,3380 nM
same,TGI,BT-549 breast,15 µM
same,GI50,UACC-257 melanoma,4.17 µM
same,TGI,UACC-257 melanoma,13.8 µM
same,GI50,SNB-19 CNS,2250 nM
same,TGI,SNB-19 CNS,5.69 µM
same,GI50,HCT-116 colon,1840 nM
same,TGI,HCT-116 colon,4.23 µM
same,GI50,M14 melanoma,1870 nM
same,TGI,M14 melanoma,4.98 µM
same,GI50,MCF7 breast,2190 nM
same,TGI,MCF7 breast,5.66 µM
same,GI50,SF-268 CNS,3010 nM
same,TGI,SF-268 CNS,12.4 µM
same,GI50,NCI-H23 lung,1950 nM
same,TGI,NCI-H23 lung,5.86 µM
same,GI50,K-562 leukemia,2220 nM
same,TGI,K-562 leukemia,7.38 µM
same,GI50,CCRF-CEM leukemia,3070 nM
same,TGI,CCRF-CEM leukemia,14.9 µM
same,GI50,EKVX NSCLC,1880 nM
same,TGI,EKVX NSCLC,6.01 µM
same,GI50,MALME-3M melanoma,2340 nM
same,TGI,MALME-3M melanoma,7.85 µM
same,GI50,OVCAR-8 ovarian,3380 nM
same,TGI,OVCAR-8 ovarian,17.5 µM
same,GI50,NCI-H522 lung,1850 nM
same,TGI,NCI-H522 lung,4470 nM
same,GI50,HT29 colon,2010 nM
same,TGI,HT29 colon,4.03 µM
same,GI50,RXF 393 renal,2850 nM
same,TGI,RXF 393 renal,8.75 µM
same,GI50,SW-620 colon,1760 nM
same,TGI,SW-620 colon,3.84 µM
same,GI50,NCI-H226 lung,2130 nM
same,TGI,NCI-H226 lung,5.3 µM
same,GI50,IGROV1 ovarian,3410 nM
same,TGI,IGROV1 ovarian,18.3 µM
same,GI50,MDA-MB-231 breast,1300 nM
same,TGI,MDA-MB-231 breast,2880 nM
same,GI50,SNB-75 CNS,1890 nM
same,TGI,SNB-75 CNS,16.9 µM
same,GI50,HOP-62 NSCLC,1890 nM
same,TGI,HOP-62 NSCLC,5.07 µM
same,GI50,SK-OV-3 ovarian,4340 nM
same,TGI,SK-OV-3 ovarian,22.4 µM
same,GI50,HS 578T breast,2270 nM
same,TGI,HS 578T breast,5.96 µM
same,GI50,SF-539 CNS,2150 nM
same,TGI,SF-539 CNS,5.27 µM
same,GI50,OVCAR-4 ovarian,3450 nM
same,TGI,OVCAR-4 ovarian,18.5 µM
same,GI50,OVCAR-5 ovarian,2150 nM
same,TGI,OVCAR-5 ovarian,5.8 µM
same,GI50,A549 NSCLC,2870 nM
same,TGI,A549 NSCLC,7.99 µM
same,GI50,UO-31 renal,1390 nM
same,TGI,UO-31 renal,4.36 µM
same,GI50,SN12C renal,3130 nM
same,TGI,SN12C renal,12.5 µM
same,GI50,UACC-62 melanoma,1720 nM
same,TGI,UACC-62 melanoma,4.38 µM
same,GI50,CAKI-1 renal,2890 nM
same,TGI,CAKI-1 renal,13.8 µM
same,GI50,A498 renal,2700 nM
same,TGI,A498 renal,6.38 µM
same,GI50,KM12 colon,1770 nM
same,TGI,KM12 colon,4.05 µM
same,GI50,MDA-MB-435,3270 nM
same,TGI,MDA-MB-435,12.3 µM
same,GI50,NCI/ADR-RES ovarian,2.87 µM
same,TGI,NCI/ADR-RES ovarian,10.1 µM
same,GI50,U251 CNS,3260 nM
same,TGI,U251 CNS,10.3 µM
same,GI50,SK-MEL-2 melanoma,2230 nM
same,TGI,SK-MEL-2 melanoma,5.13 µM
same,GI50,SK-MEL-5 melanoma,1880 nM
same,TGI,SK-MEL-5 melanoma,4250 nM
same,GI50,SF-295 CNS,1940 nM
same,TGI,SF-295 CNS,4.2 µM
same,GI50,HL-60(TB) leukemia,2940 nM
same,TGI,HL-60(TB) leukemia,11.6 µM
same,GI50,NCI-H460 lung,2070 nM
same,TGI,NCI-H460 lung,4.88 µM
same,GI50,PC-3 prostate,2050 nM
same,TGI,PC-3 prostate,7.68 µM
same,GI50,DU-145 prostate,3570 nM
same,TGI,DU-145 prostate,13.2 µM
same,GI50,HCC-2998 colon,1890 nM
same,TGI,HCC-2998 colon,3.83 µM
same,GI50,ACHN renal,2000 nM
same,TGI,ACHN renal,8.42 µM
same,GI50,HCT-15 colon,1640 nM
same,TGI,HCT-15 colon,3.29 µM
same,GI50,OVCAR-3 ovarian,2070 nM
same,TGI,OVCAR-3 ovarian,5.43 µM
same,GI50,SK-MEL-28 melanoma,2860 nM
same,TGI,SK-MEL-28 melanoma,8.15 µM
